The numbers were not newly measured in patent publication US20160120797A1, “ANTI-ACNE COMPOSITION AND METHODS OF USE THEREOF” (priority 2014, published 2016), which cites them from elsewhere.

`O=C(O)Cc1ccccc1Nc1c(Cl)cccc1Cl` [Diclofenac sodium, 2-(2-(2,6-dichlorophenylamino)phenyl)acetic acid]: the anti-bacterial activity entry in the data set on L. monocytogenes and in the data set on E. Coli was “anti-bacterial activity” throughout.
